Measurements taken from patent US20060287347A1, “Methods for treating smooth muscle disorders using trospium” (priority 2005, published 2006).
Like-named read-outs stand apart in the source and are kept apart here.

Columns and labels:
[1] = biological target: T1, human recombinant muscarinic receptor M-4 (Homo sapiens, UniProt P08173); assay: Ligand binding, affinity for muscarinic receptors (M-4); conditions: membranes from SF9 cells, radioligand 3H scopolamine methylchloride; read-out: Affinity (negative logarithm of the dissociation constant Ki), M-4 (converted)
T1 sequence (P08173 1-479): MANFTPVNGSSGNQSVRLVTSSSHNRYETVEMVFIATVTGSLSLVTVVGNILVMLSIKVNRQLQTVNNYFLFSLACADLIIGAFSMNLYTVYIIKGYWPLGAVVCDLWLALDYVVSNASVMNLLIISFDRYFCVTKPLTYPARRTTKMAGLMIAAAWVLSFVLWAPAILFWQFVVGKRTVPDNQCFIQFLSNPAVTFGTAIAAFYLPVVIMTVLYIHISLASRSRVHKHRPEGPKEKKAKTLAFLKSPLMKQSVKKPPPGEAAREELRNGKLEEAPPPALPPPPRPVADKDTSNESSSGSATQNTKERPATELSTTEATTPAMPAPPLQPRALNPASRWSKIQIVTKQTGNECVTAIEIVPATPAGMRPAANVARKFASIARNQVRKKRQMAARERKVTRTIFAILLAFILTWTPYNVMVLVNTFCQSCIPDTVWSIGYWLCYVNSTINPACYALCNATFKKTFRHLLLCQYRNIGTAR
Protocol: The experiments were carried out on membranes prepared from SF9 cells that expressed human recombinant muscarinic receptor subtypes. After incubation with the test article and the proper radioligand (^3H scopolamine methylchloride) and washing, bound radioactivity was determined with a liquid scintillation counter, using a commercial scintillation cocktail. The specific radioligand binding to a muscarinic receptor was defined as the difference between total binding and nonspecific binding determined in the presence of an excess of unlabelled atropine.

[2] = test system: carbachol-induced contractions of urinary bladder strips; assay: Antimuscarinic activity on bladder smooth muscle strips (carbachol-induced contractions); assay type: cell-based, guinea pig; conditions: Cavia porcellus, read-out: KB, inhibition of carbachol-induced contractions
Protocol: • Experiments have now been performed using methods described by Kachur et al, 1988, J Pharmacol Exp Ther 247: 867-872) and Noronha-Blob et al. J Pharmacol Exp Ther 256: 562-567). Strips of tissue (approximately 10 mm long and 1.5 mm wide) were removed from the urinary bladder of male guinea pigs. The tissues were suspended in an oxygenated buffer of the following composition, in mM: NaCl 133; KCl 4.7; CaCl2 2.5; MgSO4 0.6; […] The smooth muscle strips were maintained at or about 37.5° C. in tissue chambers and allowed to equilibrate with the bathing solution for one hour before proceeding with the experiment. […] R., Wright S. E., Aberg […]. 1998, 48: 1012-1018).

learning behavior = assay: Cognitive side effects, Test Protocol 1: T-shaped maze learning; assay type: in vivo, rat; conditions: for Effect on learning behavior (time to choose the correct arm of the T-maze): conscious rats, naive animals
Protocol: Conscious rats are used. The animals are placed at the base of a T-shaped maze with a reward placed in one of the arms of the maze. The effect of the test article on learning is determined by investigating the time it takes in the maze before the rats choose the correct arm of the maze. Experiments were also performed in rats that had been pretreated with phenylephrine to increase the permeability of the blood-brain barrier. Control groups of animals were treated with placebo (vehicle only) or with oxybutynin.

[3] = test system: behavioral, neurological, autonomic and toxicity changes; assay: Cognitive side effects, Test Protocol 2: modified Irwin test; assay type: in vivo, mouse; conditions: oral dosing
Protocol: Modified Irwin tests were performed. This is a routine neuro-pharmacological test method. Conscious mice were used. The procedure involved an initial phase of undisturbed observation and a later manipulative phase. An animal's assessment started by observing its undisturbed behavior in housing (body position, locomotor activity, etc.). Thereafter the animal was transferred by tail on the working table for the manipulative phase (spatial locomotion, gait, aggressiveness, etc.). The occurrence of any unexpected state was noted. The responses to test substances were assessed at 60 min, 120 min and 24 hrs after dosing. Animals were dose orally with trospium chloride, some groups of animals had been pretreated with phenylephrine to increase the permeability of the blood-brain barrier. Criteria included behavioral, neurological, autonomic and toxicity changes in comparison with vehicle-treated groups. The results were expressed for each group as the number of animals displaying behavioral changes versus the corresponding control group at each observation time. No statistical analysis was carried out since the lack of statistically significant differences were obvious to the investigator.

[4] = male guinea pig urinary bladder strips

| Compound | Ki [1] [nM] | Kb [2, 4] [nM] | Effect on learning behavior (time to choose the correct arm of the T-maze) (learning behavior; ongoing studies) | Kb [2] [nM] | further results |
| --- | --- | --- | --- | --- | --- |
| NC(=O)C(c1ccccc1)(c1ccccc1)[C@@H]1CCN(CCc2ccc3c(c2)CCO3)C1 [Darifenacin] | 39.8 |  |  |  |  |
| CCN(CC)CC#CCOC(=O)C(O)(c1ccccc1)C1CCCCC1 (stereo not drawn) [Oxybutynin] |  | 1.5 to 5.5 | learning is delayed |  |  |
| O=C(O[C@H]1C[C@H]2CC[C@@H](C1)[N+]21CCCC1)C(O)(c1ccccc1)c1ccccc1 [Trospium, endo-3-[(hydroxydiphenyl-acetyl)oxy]spiro[8-azoniabicyclo[3.2.1]octane-8,1′-pyrrolidinium]chloride] |  |  | does not influence the learning behavior | 1.5 to 5.5 | Further impairment of learning behavior (learning behavior; rats in which a learning disorder has been induced with oxybutynin, ongoing studies): no further impairment of learning behavior; Impairment of learning behavior after phenylephrine pretreatment (learning behavior; rats pretreated with phenylephrine to increase blood-brain barrier permeability): did not uncover any impairment of learning behavior; Behavioral changes in modified Irwin test versus control group ([3]; conscious mice, assessed at 60 min, 120 min and 24 hrs): did not influence the test results; Behavioral changes in modified Irwin test after phenylephrine pretreatment ([3]; mice pretreated with phenylephrine to increase BBB permeation): no significant effects |
| CC(CC(c1ccccc1)c1ccccc1)NC(C)(C)C (stereo not drawn) [terodiline] |  | 1.5 to 5.5 |  |  |  |
| Cc1ccc(O)c([C@H](CCN(C(C)C)C(C)C)c2ccccc2)c1 [Tolterodine] | 12.6 |  |  | 1.5 to 5.5 |  |
